Results reported in PubChem BioAssay AID248 (DTP/NCI, 2004).
“And” between values parts separate entries of the source, which are not always exact repeats. Identical values can stand only once. Inconclusive results and toxic doses are left out. No stated cut-off is given here; in the data, active means T/C of 150% or more; inactive means T/C below 125%.

Test system: L1210 leukemia ip in BDF1 mice, survival T/C
Test: NCI In Vivo Anticancer Drug Screen. Data for tumor model L1210 Leukemia (intraperitoneal) in B6D2F1 (BDF1) mice
Conditions: endpoint: mean survival time, higher = longer survival
Summary of the method: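 Each compound was tested against a transplantable tumor grown in mice. The endpoint was survival, with treated animals benchmarked against vehicle controls as a simple ratio.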

[1] = dose: 100.0 mg/kg/injection, schedule: Q01DX001 (ip), vehicle: other
[2] = dose: 100.0 mg/kg/injection, schedule: Q01DX001 (ip), vehicle: saline
[3] = dose: 200.0 mg/kg/injection, schedule: Q01DX001 (ip), vehicle: saline
[4] = dose: 400.0 mg/kg/injection, schedule: Q01DX001 (ip), vehicle: saline
[5] = dose: 200.0 mg/kg/injection, schedule: Q01DX001 (ip), vehicle: saline with Tween-80
[6] = dose: 400.0 mg/kg/injection, schedule: Q01DX001 (ip), vehicle: saline with Tween-80
[7] = dose: 100.0 mg/kg/injection, schedule: Q01DX009 (ip), vehicle: Klucel (hydroxypropylcellulose) (HPC)
[8] = dose: 200.0 mg/kg/injection, schedule: Q01DX009 (ip), vehicle: Klucel (hydroxypropylcellulose) (HPC)
[9] = dose: 400.0 mg/kg/injection, schedule: Q01DX009 (ip), vehicle: Klucel (hydroxypropylcellulose) (HPC)
[10] = dose: 100.0 mg/kg/injection, schedule: Q04DX003 (ip), vehicle: saline
[11] = dose: 200.0 mg/kg/injection, schedule: Q04DX003 (ip), vehicle: saline
[12] = dose: 400.0 mg/kg/injection, schedule: Q04DX003 (ip), vehicle: saline
[13] = dose: 100.0 mg/kg/injection, schedule: Q01DX001 (ip), vehicle: carboxymethylcellulose (CMC)
[14] = dose: 200.0 mg/kg/injection, schedule: Q01DX001 (ip), vehicle: carboxymethylcellulose (CMC)
[15] = dose: 100.0 mg/kg/injection, schedule: Q04DX003 (ip), vehicle: saline with Tween-80
[16] = dose: 400.0 mg/kg/injection, schedule: Q04DX003 (ip), vehicle: saline with Tween-80
[17] = dose: 100.0 mg/kg/injection, schedule: Q01DX009 (ip), vehicle: saline
[18] = dose: 100.0 mg/kg/injection, schedule: Q04DX002 (ip), vehicle: saline
[19] = dose: 200.0 mg/kg/injection, schedule: Q01DX009 (ip), vehicle: saline
[20] = dose: 200.0 mg/kg/injection, schedule: Q04DX002 (ip), vehicle: saline
[21] = dose: 400.0 mg/kg/injection, schedule: Q01DX009 (ip), vehicle: saline
[22] = dose: 400.0 mg/kg/injection, schedule: Q04DX002 (ip), vehicle: saline

Measured: T/C

O=P(Oc1ccccc1)(N1CCCCC1)N1CCCCC1
inactive: dose: 25.0 mg/kg/injection, schedule: Q01DX001 (ip), vehicle: other 96 % of control | dose: 25.0 mg/kg/injection, schedule: Q01DX009 (ip), vehicle: carboxymethylcellulose (CMC) 97 % of control and 101 % of control | dose: 25.0 mg/kg/injection, schedule: Q04DX003 (ip), vehicle: other 97 % of control | dose: 50.0 mg/kg/injection, schedule: Q01DX001 (ip), vehicle: other 91 % of control | dose: 50.0 mg/kg/injection, schedule: Q04DX003 (ip), vehicle: other 108 % of control | [1] 106 % of control | dose: 100.0 mg/kg/injection, schedule: Q04DX002 (ip), vehicle: carboxymethylcellulose (CMC) 95 % of control and 100 % of control | dose: 100.0 mg/kg/injection, schedule: Q04DX003 (ip), vehicle: other 93 % of control | dose: 200.0 mg/kg/injection, schedule: Q04DX002 (ip), vehicle: carboxymethylcellulose (CMC) 104 % of control and 106 % of control | dose: 200.0 mg/kg/injection, schedule: Q04DX003 (ip), vehicle: carboxymethylcellulose (CMC) 92 % of control

NC(CSSc1ccccc1)=NCC12CC3CC(CC(C3)C1)C2
inactive: dose: 10.0 mg/kg/injection, schedule: Q01DX001 (ip), vehicle: carboxymethylcellulose (CMC) 96 % of control | dose: 20.0 mg/kg/injection, schedule: Q01DX001 (ip), vehicle: carboxymethylcellulose (CMC) 98 % of control

CC(=O)OCC(COC(C)=O)(OC(COC(C)=O)(COC(C)=O)c1ccc(C)c(C)c1)c1ccc(C)c(C)c1
inactive: dose: 50.0 mg/kg/injection, schedule: Q01DX001 (ip), vehicle: saline 97 % of control | [2] 100 % of control | [3] 97 % of control | [4] 100 % of control

CC(C)(C)OOC(=O)Nc1ccc(Cl)cc1
inactive: [5] 89 % of control | [6] 92 % of control

CCOC(=O)C(C)Oc1ccccc1[N+](=O)[O-] (centres undefined)
inactive: [7] 93 % of control | [8] 102 % of control | [9] 102 % of control

CC(OC(=O)Nc1ccc(S(=O)(=O)NC2CCCCC2)cc1)(c1ccccc1)C1CCCCC1 (centres undefined)
inactive: [2] 105 % of control | [3] 105 % of control | [4] 100 % of control

CC(=O)OCC(I)CC(F)(F)C(F)(F)C(F)(F)F (centres undefined)
inactive: dose: 100.0 mg/kg/injection, schedule: Q01DX001 (ip), vehicle: saline with Tween-80 98 % of control | [5] 103 % of control | [6] 116 % of control

CCCCCCSc1ccccn1
inactive: [10] 101 % of control | [11] 107 % of control | [12] 96 % of control

OC1OC(CF)C(O)C(O)C1O (centres undefined)
inactive: [10] 104 % of control | [11] 115 % of control | [12] 118 % of control

CN1c2ccccc2Sc2ccccc21
inactive: dose: 50.0 mg/kg/injection, schedule: Q01DX001 (ip), vehicle: carboxymethylcellulose (CMC) 94 % of control | [13] 96 % of control | [14] 107 % of control

CC(=O)NC1C(OC(C)=O)OC(COC(c2ccccc2)(c2ccccc2)c2ccccc2)C(OC(C)=O)C1OC(C)=O (centres undefined)
inactive: [2] 108 % of control | [3] 96 % of control | [4] 96 % of control

O=C(NCCCl)NC(C1CC1)C1CC1
inactive: dose: 100.0 mg/kg/injection, schedule: Q01DX009 (ip), vehicle: saline with Tween-80 94 % of control | dose: 200.0 mg/kg/injection, schedule: Q01DX009 (ip), vehicle: saline with Tween-80 94 % of control

CCCCS(=O)(=O)Oc1ccc(N)c([N+](=O)[O-])c1
inactive: [15] 101 % of control | dose: 200.0 mg/kg/injection, schedule: Q04DX003 (ip), vehicle: saline with Tween-80 101 % of control | [16] 88 % of control

CC(=O)c1cccc(NC(=O)Nc2ncccc2C)c1
inactive: [7] 102 % of control | [8] 101 % of control | [9] 98 % of control

N#CC(Oc1ccccc1)c1ccccc1 (centres undefined)
inactive: [15] 98 % of control | [16] 104 % of control

O=C(CSc1ccc([N+](=O)[O-])cn1)c1ccc(Br)cc1
inactive: [10] 102 % of control | [11] 98 % of control | [12] 102 % of control

CC(=O)SCCCCl
inactive: [10] 105 % of control | [11] 101 % of control | [12] 102 % of control

CC(=O)NC1CCCCCCC1
inactive: dose: 100.0 mg/kg/injection, schedule: Q01DX005 (ip), vehicle: saline 103 % of control | [17] 108 % of control | [18] 100 % of control | dose: 200.0 mg/kg/injection, schedule: Q01DX005 (ip), vehicle: saline 109 % of control | [19] 102 % of control | [20] 110 % of control | dose: 400.0 mg/kg/injection, schedule: Q01DX005 (ip), vehicle: saline 109 % of control | [21] 115 % of control | [22] 100 % of control

O=[N+]([O-])c1cccc(N(c2ccccc2)c2ccccc2)c1
inactive: [13] 108 % of control | [14] 108 % of control | dose: 400.0 mg/kg/injection, schedule: Q01DX001 (ip), vehicle: carboxymethylcellulose (CMC) 100 % of control

Nc1ccc(S(=O)(=O)c2ccc(N)cc2)cc1
inactive: [1] 100 % of control | dose: 100.0 mg/kg/injection, schedule: Q04DX003 (ip), vehicle: Klucel (hydroxypropylcellulose) (HPC) 96 % of control | dose: 200.0 mg/kg/injection, schedule: Q01DX001 (ip), vehicle: other 97 % of control | dose: 200.0 mg/kg/injection, schedule: Q04DX003 (ip), vehicle: Klucel (hydroxypropylcellulose) (HPC) 101 % of control | dose: 400.0 mg/kg/injection, schedule: Q01DX001 (ip), vehicle: other 107 % of control | dose: 400.0 mg/kg/injection, schedule: Q04DX003 (ip), vehicle: Klucel (hydroxypropylcellulose) (HPC) 101 % of control

CCCCOB(OCCCC)Oc1c(C(C)(C)C)cccc1C(C)(C)C
inactive: [17] 106 % of control | [10] 89 % of control | [19] 93 % of control | [11] 92 % of control | [21] 108 % of control | [12] 91 % of control

N#CC(C#N)N=O (tested in a mixture with another compound)
inactive: dose: 25.0 mg/kg/injection, schedule: Q04DX002 (ip), vehicle: saline 89 % of control | dose: 50.0 mg/kg/injection, schedule: Q04DX002 (ip), vehicle: saline 101 % of control | [18] 95 % of control and 97 % of control | [20] 105 % of control

Nc1ncnc2c1ncn2C1C=CC(CO)O1 (centres undefined)
inactive: [2] 102 % of control | [3] 100 % of control | [4] 102 % of control

CC(C)(C)OP(O)(=S)OC(C)(C)C
inactive: [18] 94 % of control | [20] 113 % of control | [22] 110 % of control
